Results from patent publication US12077503B2, “Substituted cyclic amides and their use as herbicides” (FMC CORPORATION, priority 2015, dated 2024).

Assays:
Assay type in all cases: in vivo
[1] = system: wheat (Triticum aestivum); assay: Test A postemergence
Outline: (§1)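 Greenhouse, ~10 d after spray; visual injury vs untreated controls, 0 = no effect, 100 = complete control. Preemergence: directed soil spray over planted seeds. Postemergence: plants 2–10 cm, 1–2 leaf stage. Loam/sand blend. Compound in non-phytotoxic solvent with surfactant.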

Kochia (Kochia scoparia) [2] = assay: Test A postemergence
Outline: as §1

[3] = system: giant foxtail (Setaria faberii); assay: Test A postemergence
Outline: as §1

[4] = system: blackgrass (Alopecurus myosuroides); assay: Test A postemergence
Outline: as §1

[5] = system: Galium (catchweed bedstraw, Galium aparine); assay: Test A postemergence
Outline: as §1

[6] = system: pigweed (Amaranthus retroflexus); assay: Test A postemergence
Outline: as §1

corn (Zea mays) = assay: Test A postemergence
Outline: as §1

[7] = system: ragweed (common ragweed, Ambrosia elatior); assay: Test A postemergence
Outline: as §1

[8] = system: barnyardgrass (Echinochloa crus-galli); assay: Test A postemergence
Outline: as §1

[9] = system: ryegrass, Italian (Italian ryegrass, Lolium multiflorum); assay: Test A postemergence
Outline: as §1

Kochia (Kochia scoparia) [10] = assay: Test A preemergence; settings: for Kochia plant response rating (0 to 100 scale, 0 is no effect, 100 is complete control): visual injury approx. 10 d
Outline: as §1

[11] = system: giant foxtail (Setaria faberii); assay: Test A preemergence; settings: for Foxtail, Giant plant response rating (0 to 100 scale, 0 is no effect, 100 is complete control): visual injury approx. 10 d
Outline: as §1

[12] = system: pigweed (Amaranthus retroflexus); assay: Test A preemergence; settings: for Pigweed plant response rating (0 to 100 scale, 0 is no effect, 100 is complete control): visual injury approx. 10 d
[13] = system: ragweed (common ragweed, Ambrosia elatior); assay: Test A preemergence; settings: for Ragweed plant response rating (0 to 100 scale, 0 is no effect, 100 is complete control): visual injury approx. 10 d
Outline: as §1

[14] = system: barnyardgrass (Echinochloa crus-galli); assay: Test A preemergence; settings: for Barnyardgrass plant response rating (0 to 100 scale, 0 is no effect, 100 is complete control): visual injury approx. 10 d
Outline: as §1

[15] = system: ryegrass, Italian (Italian ryegrass, Lolium multiflorum); assay: Test A preemergence; settings: for Ryegrass, Italian plant response rating (0 to 100 scale, 0 is no effect, 100 is complete control): visual injury approx. 10 d
Outline: as §1

rice (Oryra sativa) = assay: Test B flooded paddy test; settings: Flood, 0 to 100 scale where 0 is no effect and 100 is complete control, 13 to 15 d
Outline: (§2)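 Greenhouse paddy pots with 2-leaf stage plants received compound by direct addition to floodwater 3 cm deep, kept at that level. Scored visually at 13–15 d versus controls (0 no effect; 100 complete control).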

[16] = system: sedge, umbrella (small-flower umbrella sedge, Cyperus difformis); assay: Test B flooded paddy test; settings: Flood, 0 to 100 scale where 0 is no effect and 100 is complete control, 13 to 15 d
Outline: as §2

[17] = system: barnyardgrass (Echinochloa crus-galli); assay: Test B flooded paddy test; settings: Flood, 0 to 100 scale where 0 is no effect and 100 is complete control, 13 to 15 d
Outline: as §2

[18] = system: ducksalad (Heteranthera limosa); assay: Test B flooded paddy test; settings: Flood, 0 to 100 scale where 0 is no effect and 100 is complete control, 13 to 15 d
Outline: as §2

[19] = 125 g ai/ha, postemergence, visual injury rating on 0 to 100 scale (0 no effect, 100 complete control), approx. 10 d
[20] = 500 g ai/ha, postemergence, 0 to 100 scale, 0 no effect, 100 complete control
[21] = 125 g ai/ha, preemergence, 0 to 100 scale (0 no effect, 100 complete control)
[22] = 125 g ai/ha, postemergence, visual rating after approx. 10 d, 0 to 100 scale (0 no effect, 100 complete control)
[23] = 500 g ai/ha, postemergence, visual injury, 0 to 100 scale (0 no effect, 100 complete control), approx. 10 d
[24] = Postemergence, 500 g ai/ha, 0 to 100 scale where 0 is no effect and 100 is complete control
[25] = 125 g ai/ha, Preemergence, visual injury after approximately 10 d, 0 to 100 scale where 0 is no effect and 100 is complete control
[26] = 500 g ai/ha, preemergence, 0 to 100 scale, 0 = no effect, 100 = complete control
[27] = 125 g ai/ha, postemergence, visual injury after approximately 10 d, 0 to 100 scale (0 no effect, 100 complete control)
[28] = 125 g ai/ha, preemergence, visual rating after approx. 10 d, 0 to 100 scale where 0 is no effect and 100 is complete control

COc1cccc(NC(=O)C2C(=O)NCC2c2ccc(F)c(F)c2)c1F (stereo not drawn) [Compound 416]
15: Plant response rating, Rice (rice (Oryra sativa); 500 g ai/ha)
0: Wheat plant response rating [1, 19] | Plant response rating, Wheat [1, 20] | Kochia plant response rating (Kochia (Kochia scoparia) [2]; [19]) | Plant response rating, Kochia (Kochia (Kochia scoparia) [2]; [20]) | Foxtail, Giant plant response rating [3, 19] | Plant response rating, Foxtail, Giant [3, 20] | Blackgrass plant response rating [4, 19] | Plant response rating, Blackgrass [4, 20] | Galium plant response rating [5, 19] | Plant response rating, Galium [5, 20] | Pigweed plant response rating [6, 19] | Plant response rating, Pigweed [6, 20] | Corn plant response rating (corn (Zea mays); [19]) | Plant response rating, Corn (corn (Zea mays); [20]) | Ragweed plant response rating [7, 19] | Plant response rating, Ragweed [7, 20] | Barnyardgrass plant response rating [8, 19] | Plant response rating, Barnyardgrass [8, 20] | Ryegrass, Italian plant response rating [9, 19] | Plant response rating, Ryegrass, Italian [9, 20] | Plant response rating, Kochia (Kochia (Kochia scoparia) [10]; [21]) | Kochia plant response rating (0 to 100 scale, 0 is no effect, 100 is complete control) (Kochia (Kochia scoparia) [10]; Preemergence, 500 g ai/ha) | Plant response rating, Foxtail, Giant [11, 21] | Plant response rating, Pigweed [12, 21] | Pigweed plant response rating (0 to 100 scale, 0 is no effect, 100 is complete control) ([12]; Preemergence, 500 g ai/ha) | Plant response rating, Ragweed [13, 21] | Ragweed plant response rating (0 to 100 scale, 0 is no effect, 100 is complete control) ([13]; Preemergence, 500 g ai/ha) | Plant response rating, Barnyardgrass [14, 21] | Barnyardgrass plant response rating (0 to 100 scale, 0 is no effect, 100 is complete control) ([14]; Preemergence, 500 g ai/ha) | Plant response rating, Ryegrass, Italian [15, 21] | Ryegrass, Italian plant response rating (0 to 100 scale, 0 is no effect, 100 is complete control) ([15]; Preemergence, 500 g ai/ha) | Plant response rating, Sedge, Umbrella ([16]; 500 g ai/ha) | Plant response rating, Barnyardgrass ([17]; 500 g ai/ha)
50: Foxtail, Giant plant response rating (0 to 100 scale, 0 is no effect, 100 is complete control) ([11]; Preemergence, 500 g ai/ha) | Plant response rating, Ducksalad ([18]; 500 g ai/ha)

C=CCOc1cccc(C2CNC(=O)C2(CC=C)C(=O)Nc2cccc(F)c2F)c1 (stereo not drawn) [Compound 631]
0: Plant response rating, Wheat [1, 22] | Plant response rating, Wheat [1, 23] | Plant response rating, Kochia (Kochia (Kochia scoparia) [2]; [22]) | Plant response rating, Kochia (Kochia (Kochia scoparia) [2]; [23]) | Plant response rating, Foxtail, Giant [3, 22] | Plant response rating, Foxtail, Giant [3, 23] | Plant response rating, Blackgrass [4, 22] | Plant response rating, Blackgrass [4, 24] | Plant response rating, Galium [5, 22] | Plant response rating, Galium [5, 23] | Plant response rating, Pigweed [6, 22] | Plant response rating, Pigweed [6, 23] | Plant response rating, Corn (corn (Zea mays); [22]) | Plant response rating, Corn (corn (Zea mays); [24]) | Plant response rating, Ragweed [7, 22] | Plant response rating, Ragweed [7, 23] | Plant response rating, Barnyardgrass [8, 22] | Plant response rating, Barnyardgrass [8, 24] | Plant response rating, Ryegrass, Italian [9, 22] | Plant response rating, Ryegrass, Italian [9, 23] | Plant response rating, Kochia (Kochia (Kochia scoparia) [10]; [25]) | Plant response rating, Kochia (Kochia (Kochia scoparia) [10]; [26]) | Plant response rating, Foxtail, Giant [11, 25] | Plant response rating, Foxtail, Giant [11, 26] | Plant response rating, Pigweed [12, 25] | Plant response rating, Pigweed [12, 26] | Plant response rating, Ragweed [13, 25] | Plant response rating, Ragweed [13, 26] | Plant response rating, Barnyardgrass [14, 25] | Plant response rating, Barnyardgrass [14, 26] | Plant response rating, Ryegrass, Italian [15, 25] | Plant response rating, Ryegrass, Italian [15, 26] | Plant response rating, Rice (rice (Oryra sativa); 250 g ai/ha) | Plant response rating, Sedge, Umbrella ([16]; 250 g ai/ha) | Plant response rating, Barnyardgrass ([17]; 250 g ai/ha) | Plant response rating, Ducksalad ([18]; 250 g ai/ha)

O=C1NCC(c2cccc(Br)c2)C1C(=O)Nc1ccc(F)cc1F (racemic) [Compound 687]
80: Plant response rating, Foxtail, Giant [3, 27] | Plant response rating, Ducksalad ([18]; 250 g ai/ha)
70: Plant response rating, Corn (corn (Zea mays); [23])
90: Plant response rating, Foxtail, Giant [3, 23] | Plant response rating, Barnyardgrass [8, 22] | Plant response rating, Barnyardgrass [8, 23] | Plant response rating, Foxtail, Giant [11, 25] | Plant response rating, Foxtail, Giant [11, 26] | Plant response rating, Barnyardgrass [14, 25] | Plant response rating, Barnyardgrass [14, 26]
0: Plant response rating, Wheat [1, 27] | Plant response rating, Kochia (Kochia (Kochia scoparia) [2]; [27]) | Plant response rating, Galium [5, 27] | Plant response rating, Pigweed [6, 27] | Plant response rating, Corn (corn (Zea mays); [27]) | Plant response rating, Kochia (Kochia (Kochia scoparia) [10]; [25]) | Plant response rating, Pigweed [12, 28] | Plant response rating, Ragweed [13, 28] | Plant response rating, Ragweed [13, 26] | Plant response rating, Ryegrass, Italian [15, 28] | Plant response rating, Rice (rice (Oryra sativa); 250 g ai/ha) | Plant response rating, Sedge, Umbrella ([16]; 250 g ai/ha)
20: Plant response rating, Galium [5, 23] | Plant response rating, Pigweed [6, 23] | Plant response rating, Ryegrass, Italian [9, 27] | Plant response rating, Ryegrass, Italian [15, 26]
40: Plant response rating, Blackgrass [4, 23] | Plant response rating, Ryegrass, Italian [9, 23] | Plant response rating, Kochia (Kochia (Kochia scoparia) [10]; [26])
30: Plant response rating, Kochia (Kochia (Kochia scoparia) [2]; [23]) | Plant response rating, Blackgrass [4, 22] | Plant response rating, Ragweed [7, 27] | Plant response rating, Ragweed [7, 23] | Plant response rating, Pigweed [12, 26]
35: Plant response rating, Barnyardgrass ([17]; 250 g ai/ha)
60: Plant response rating, Wheat [1, 23]

O=C1NCC(c2cc(F)ccc2F)C1C(=O)Nc1cccc(F)c1F (racemic) [Compound 546]
20: Plant response rating, Blackgrass [4, 24] | Plant response rating, Corn (corn (Zea mays); [24]) | Plant response rating, Rice (rice (Oryra sativa); 250 g ai/ha)
80: Plant response rating, Barnyardgrass [8, 22] | Plant response rating, Barnyardgrass [14, 25]
85: Plant response rating, Ducksalad ([18]; 250 g ai/ha)
0: Plant response rating, Wheat [1, 22] | Plant response rating, Wheat [1, 24] | Plant response rating, Kochia (Kochia (Kochia scoparia) [2]; [22]) | Plant response rating, Kochia (Kochia (Kochia scoparia) [2]; [24]) | Plant response rating, Blackgrass [4, 22] | Plant response rating, Galium [5, 22] | Plant response rating, Galium [5, 24] | Plant response rating, Pigweed [6, 22] | Plant response rating, Pigweed [6, 24] | Plant response rating, Corn (corn (Zea mays); [22]) | Plant response rating, Ragweed [7, 22] | Plant response rating, Ragweed [7, 24] | Plant response rating, Ryegrass, Italian [9, 22] | Plant response rating, Ryegrass, Italian [9, 24] | Plant response rating, Kochia (Kochia (Kochia scoparia) [10]; [25]) | Kochia plant response rating (0 to 100 scale, 0 is no effect, 100 is complete control) (Kochia (Kochia scoparia) [10]; Preemergence, 500 g ai/ha) | Plant response rating, Pigweed [12, 25] | Pigweed plant response rating (0 to 100 scale, 0 is no effect, 100 is complete control) ([12]; Preemergence, 500 g ai/ha) | Plant response rating, Ragweed [13, 25] | Ragweed plant response rating (0 to 100 scale, 0 is no effect, 100 is complete control) ([13]; Preemergence, 500 g ai/ha) | Plant response rating, Ryegrass, Italian [15, 25] | Ryegrass, Italian plant response rating (0 to 100 scale, 0 is no effect, 100 is complete control) ([15]; Preemergence, 500 g ai/ha) | Plant response rating, Sedge, Umbrella ([16]; 250 g ai/ha)
90: Plant response rating, Foxtail, Giant [3, 24] | Plant response rating, Barnyardgrass [8, 24] | Plant response rating, Foxtail, Giant [11, 25] | Foxtail, Giant plant response rating (0 to 100 scale, 0 is no effect, 100 is complete control) ([11]; Preemergence, 500 g ai/ha) | Barnyardgrass plant response rating (0 to 100 scale, 0 is no effect, 100 is complete control) ([14]; Preemergence, 500 g ai/ha)
70: Plant response rating, Foxtail, Giant [3, 22] | Plant response rating, Barnyardgrass ([17]; 250 g ai/ha)
